Here are results for 8 compounds from PubChem BioAssay (NCI).

Holding throughout (experiment): NCI-60 cell line screen, 48 h
Experiment [1] concerns A498 renal.
Experiment [2] relates to A549 NSCLC.
Experiment [3] concerns ACHN renal.
In experiment [4] the test system is COLO 205 colon.
Experiment [5] has as its system DU-145 prostate.
In experiment [6] the test system is EKVX NSCLC.
Experiment [7] has as its system HCC-2998 colon.
The test system of experiment [8] is HCT-15 colon.
The subject of experiment [9] is KM12 colon.
For experiment [10], the system named is M14 melanoma.
Experiment [11] relates to MDA-MB-231 breast.
Experiment [12] has as its system SF-268 CNS.
The subject of experiment [13] is SF-295 CNS.
Experiment [14] deals with SK-MEL-2 melanoma.
In experiment [15] the test system is SK-MEL-28 melanoma.
The subject of experiment [16] is UACC-257 melanoma.
Experiment [17] has as its system UACC-62 melanoma.

The structures appear in SMILES notation.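 These data come from cells grown in 96-well plates and exposed to compound for 48 hours at five concentrations. TGI: total growth inhibition.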

Consider `O=c1[nH]c(=O)n(C/C=C/CBr)nc1Br`, for which the TGI was 26.3 µM in experiment [1]; 30.8 µM in experiment [2]; 25.8 µM in experiment [3]; 27.8 µM in experiment [4]; greater than 100 µM in experiment [5]; 28.8 µM in [6]. Further, the TGI was 28.3 µM in [7]; 27.9 µM in experiment [8]; 28.8 µM in experiment [9]; 27.6 µM in experiment [10]; 14.1 µM in [11]; 28.5 µM in [12]. Also, the TGI worked out at 31.1 µM in [13]; 26 µM in [14]; 28.2 µM in [15]; 24.9 µM in [16]; 27.3 µM in experiment [17].
In the case of `Cc1ccc(-c2cc(-c3c(C)nn(C)c(=O)c3N)[nH]n2)cc1`, the TGI in experiment [1], in experiment [2], in experiment [3], in experiment [4], in experiment [5] and in [6] was greater than 100 µM each time. For the same compound, the TGI in experiment [7], in [8], in experiment [9], in [10], in experiment [11] and in experiment [12] was greater than 100 µM each time. The TGI in [13], in experiment [14], in experiment [15], in experiment [16] and in [17] was greater than 100 µM each time.
On to `COc1ccc2c(-c3ccc(O)cc3)c(Oc3ccc(Cl)cc3)c(=O)oc2c1`, for which the TGI in [1] was 22.5 µM; in experiment [2] it was greater than 29.5 µM; in experiment [3], greater than 37.7 µM; in experiment [4], greater than 36.5 µM; in experiment [5], 24.7 µM; in experiment [6], 12.5 µM. The TGI is 25.7 µM in [7]; 17.6 µM in experiment [8]; 22.6 µM in experiment [9]; 17.9 µM in experiment [10]; 20.6 µM in experiment [11]; 24.6 µM in [12]. The TGI in experiment [13] worked out at 23 µM; in experiment [14], 11.2 µM; in [15] it was 23.1 µM; in experiment [16], 41 µM; in experiment [17] it was 18.6 µM.
For the compound `CCN(CC)C(=S)SS(=O)(=O)c1ccccc1[N+](=O)[O-]`, the TGI in experiment [1] is greater than 100 µM; in experiment [2], greater than 100 µM; in experiment [3], greater than 78.4 µM; in experiment [4], greater than 100 µM; in experiment [5], greater than 66.5 µM; in experiment [6], greater than 100 µM. For the same compound, the TGI in experiment [7] is greater than 100 µM; in experiment [8] it was greater than 100 µM; in experiment [9], greater than 50 µM; in [10], greater than 48.5 µM; in experiment [11], 37.3 µM; in experiment [12] it was greater than 100 µM. The TGI is greater than 100 µM in [13]; greater than 100 µM in experiment [14]; 49.9 µM in experiment [15]; greater than 60.6 µM in experiment [16]; greater than 100 µM in experiment [17].
Regarding `COCCOCCOCCOc1ccc(C(C#N)N(CCc2ccccc2)C(=O)c2cc(C(=O)N(CCc3ccccc3)C(C#N)c3ccc(OCCOCCOCCOC)cc3)cc(C(=O)N(CCc3ccccc3)C(C#N)c3ccc(OCCOCCOCCOC)cc3)c2)cc1` (stereo unspecified), the TGI in experiment [1], in experiment [2], in experiment [3], in [4], in experiment [5] and in experiment [6] was greater than 100 µM in each case. Moreover, the TGI in experiment [7], in experiment [8], in experiment [9], in experiment [10], in experiment [11] and in experiment [12] was greater than 100 µM throughout. In addition, the TGI in [13], in [14], in experiment [15], in experiment [16] and in experiment [17] was greater than 100 µM throughout.
For `O=C1C(Cl)C(c2cc3cc(Br)ccc3nc2Cl)N1c1c(Cl)cccc1Cl` (stereo unspecified), the TGI in experiment [1] was greater than 25 µM; in [2], greater than 25 µM; in [3], greater than 25 µM; in experiment [4], greater than 25 µM; in experiment [5], greater than 25 µM; in experiment [6], 22.2 µM. Besides, the TGI in experiment [7], in [8], in experiment [9], in experiment [10], in experiment [11] and in [12] was greater than 25 µM in each case. The TGI in experiment [13], in [14], in experiment [15], in [16] and in experiment [17] was greater than 25 µM each time.
With `COc1ccc2c(CCNS(=O)(=O)c3ccccc3)c(C(C)=O)[nH]c2c1`, the TGI in experiment [1], in experiment [2], in [3], in experiment [4], in experiment [5] and in experiment [6] was greater than 100 µM throughout. For the same compound, the TGI in experiment [7], in experiment [8], in experiment [9], in experiment [10], in experiment [11] and in experiment [12] was greater than 100 µM each time. In addition, the TGI was greater than 100 µM in [13]; greater than 100 µM in [14]; greater than 100 µM in [15]; greater than 57.1 µM in experiment [16]; greater than 100 µM in experiment [17].
On to `CC1OC(O[C@H]2CC[C@]3(C=O)[C@H]4CC[C@]5(C)[C@H](C6=CC(=O)OC6)CC[C@]5(O)[C@@H]4C=C[C@]3(O)C2)CC(O)C1O` (stereo partly specified), for which the TGI in experiment [1] was found to be 0.611 µM; in experiment [2], 0.378 µM; in experiment [3] it was 0.41 µM; in [4], 1.91 µM; in [5], 0.442 µM; in experiment [6], 0.611 µM. Further, the TGI in experiment [7] amounted to 2.92 µM; in experiment [8], 0.62 µM; in experiment [9], 2.76 µM; in [10], 0.761 µM; in experiment [11], 2.57 µM; in [12], 0.589 µM. Also, the TGI in [13] turned out to be 0.489 µM; in experiment [14] it was 1.14 µM; in [15], 1.7 µM; in experiment [16], 1.82 µM; in [17] it was 0.807 µM.
